This is an account of results in patent US9494576B2, “Methods for detecting contaminants in solutions containing glucose polymers” (ROQUETTE FRERES, priority 2011, dated 2016).

One may read the EC50 as the concentration giving half of the maximal effect.

One test deals with HEK-BLUE Null2 line. The test is described as follows: SEAP production by HEK-BLUE Null2 control line (HEK-Null). Type of test: cell-based. How it is done: (§1) This line, which naturally expresses virtually all the innate immunity receptors, is used as a positive control in the tests.
(§2) The RAW-BLUE and HEK-BLUE cells are cultured according to the supplier's recommendations. In particular, the selection pressure for the plasmids encoding the inflammatory molecule receptors (TLR2 or NOD2) and encoding the SEAP is provided by adding, to the culture medium, the HEK-BLUE Selection/blasticidin antibiotics. At 75% confluence, the cells are resuspended at a cell density of 0.28×10^6 cells/ml. Before stimulation, 180 μl of the cell suspension are distributed into the culture wells (96-well plate), i.e. 50 000 cells/well. The cells are then stimulated for 24 h by adding 20 μl of the test samples (in ten-times concentrated form). The stimulation lasts from 16 to 24 h.
(§3) The production of SEAP in response to the contaminated molecules is estimated by measuring the phosphatase activity according to the protocol supplied by the manufacturer: 20 μl of culture supernatant are diluted in 180 μl of QUANTI-BLUE. The color develops at 37° C. and the reading is carried out, at various times, at 620 nm. The data are expressed as absorbance after subtraction of the background noise, obtained by adding the same volume of nonconditioned culture medium to the reaction medium of the enzyme.

The next test deals with NOD2 (Homo sapiens, UniProt Q9HC29). The test is described as follows: SEAP production by HEK-BLUE hNOD2 line (HEK-NOD2). Type of test: cell-based.
Excerpt: The HEK-BLUE cell lines (InvivoGen) are lines modified by stable transfection with vectors encoding innate immunity receptors. These cells are also cotransfected with a reporter gene which produces a secreted form of alkaline phosphatase (SEAP: secreted embryonic alkaline phosphatase), the synthesis of which is under the direct control of the signaling pathway associated with the receptor(s) expressed in the same cell line.
as §1, §2, §3
In the new procedure referred to as without subculturing, the HEK-NOD2 cells are conditioned in wells (10 000/well) and cultured for three days. Before stimulation, the culture medium is removed and replaced with a medium containing 1% of FCS and the solutions to be assayed. In this case, the SEAP response is 5-6 times greater than the negative control, which is compatible with a test for detecting MDP in contaminated solutions (FIG. 12).
(§4) The following experimental conditions were selected: • final glucose polymer concentration: 37.5 mg/ml for the HEK-BLUE-cells, and 50 mg/ml for the RAW-BLUE cells, • enzymatic reaction: 50 μl of conditioned medium+150 μl of SEAP reagent, • minimum reaction time: 60 min.

Test [1] relates to THP-1 cells. The test is described as follows: Production of RANTES by differentiated (MDP-sensitized) THP-1 cells, ELISA. Type of test: cell-based. The following applies: for synergistic effect on the production of RANTES: sensitizer added to PGN/LPS: MDP 10 μg/ml, f-MLP 1, 10, 100 nM, LPS 25 pg/ml; for Detection threshold / EC50: RANTES; for Detection threshold / EC50 / Sensitivity: without MDP; for Sensitivity: per g of polymer at 25 mg/ml. How it is done: (§5) The THP-1 cells (88081201, ECACC) are cultured routinely in the laboratory.
(§6) For the pro-inflammatory activation experiments, the THP-1 cells are differentiated for 3 days in the presence of phorbol ester (PMA). In particular, the cells are placed in culture in 200 μl of complete medium in the presence of 20 nM of PMA for 72 h (final cell density: 0.75×10^6 cells/ml).
(§7) The differentiated THP-1 cells (0.75×10^6 cells/ml) are placed in culture in 200 μl of complete medium, and then incubated in the presence of the various test samples.
(§8) Each analysis is carried out in triplicate.
(§9) The cell supernatants are collected in order to assay the secreted cytokines after 8 h of stimulation for TNF-α, and 20 h for RANTES.
(§10) The ELISA assays are carried out according to the indications given by the supplier.
The following experimental conditions are selected: • final concentration of differentiated THP-1 cells: 0.75×10^6 cells/ml, […], • final glucose polymer concentration: 25 mg/ml, • response: ELISA assay of the production of RANTES after 20 h of stimulation.

Test [2] has as its system THP-1 cells. Type of test: cell-based. As to the method: as §5, §6, §7, §8, §9, §10
Another test deals with RAW-BLUE cells. Put plainly: SEAP production by RAW-BLUE line. Type of test: cell-based, mouse. As to conditions: for Detection threshold / EC50: RAW-BLUE line; for Sensitivity: per g of polymer at 50 mg/ml. As to the method: as §1, §2, §3, §4
The subject of another test is mononuclear cells. As to conditions: background statement, cited from earlier work.
Test [3] addresses T1, TLR2 (Homo sapiens, UniProt O60603). Put plainly: SEAP production by HEK-BLUE hTLR2 line (HEK-TLR2). Type of test: cell-based. As to the method:
The HEK-BLUE cell lines (InvivoGen) are lines modified by stable transfection with vectors encoding innate immunity receptors. These cells are also cotransfected with a reporter gene which produces a secreted form of alkaline phosphatase (SEAP: secreted embryonic alkaline phosphatase), the synthesis of which is under the direct control of the signaling pathway associated with the receptor(s) expressed in the same cell line. […]
as §2, §3, §4

Test [4] deals with T1, TLR2. Put plainly: Peptidoglycan assay method with HEK-BLUE hTLR2 cells, with or without mutanolysin treatment. Type of test: cell-based. How it is done:
The assay is based on the specific recognition of PGNs by a line expressing the TLR2 receptor and on the production of an enzymatic activity that is measurable via the activation of the signaling pathway associated with TLR2.
The dose-response curve was produced with standard S. aureus PGN (FIG. 21).
The HEK-BLUE cells are incubated with increasing concentrations of standard, and the cell response is measured by quantifying the enzymatic activity produced.
The result is a conventional sigmoid cell response curve: • part (A) corresponds to the responses obtained with low concentrations of PGN, below those which give effective activation of TLR2. This nonlinear zone therefore corresponds to the threshold limit of detection of the method. In such a way as to include the variability of the method, this detection threshold is estimated at three times the value of the background noise (response obtained in the absence of stimulus). • part (B) is the most interesting since a linear response is observed. This effective-response zone makes it possible to determine a direct relationship between the cell response and the level of PGN. It is therefore the assaying zone; • part (C) corresponds to a saturation of the cell response in the presence of PGN concentrations which are too high. […]
The PGN assays are carried out on glucose polymer solutions. The sample requiring the PGN quantification is incubated with HEK-BLUE hTLR2 cells, and the cell response is measured by quantifying the enzymatic activity produced. The amount of PGN contained in the sample can be determined by referring to the dose-response curves. […]
The samples were treated in the presence of 2500 U/ml of mutanolysin for 16 h at 37° C., and then added to the HEK-TLR2 cells. The cell response was measured by following the activity of the SEAP produced, according to the conditions described in example 3. […]
The absorbance values were reported on the calibration curves established under the same conditions with the standard PGN (FIG. 23), so as to determine the PGN concentrations present in the glucose polymers.

Setting [5] is: test of resumption of growth, FIG. 8, supplier's culture procedure.

Like-named read-outs stand apart in the source and are kept apart here.

T1 sequence (O60603 21-784): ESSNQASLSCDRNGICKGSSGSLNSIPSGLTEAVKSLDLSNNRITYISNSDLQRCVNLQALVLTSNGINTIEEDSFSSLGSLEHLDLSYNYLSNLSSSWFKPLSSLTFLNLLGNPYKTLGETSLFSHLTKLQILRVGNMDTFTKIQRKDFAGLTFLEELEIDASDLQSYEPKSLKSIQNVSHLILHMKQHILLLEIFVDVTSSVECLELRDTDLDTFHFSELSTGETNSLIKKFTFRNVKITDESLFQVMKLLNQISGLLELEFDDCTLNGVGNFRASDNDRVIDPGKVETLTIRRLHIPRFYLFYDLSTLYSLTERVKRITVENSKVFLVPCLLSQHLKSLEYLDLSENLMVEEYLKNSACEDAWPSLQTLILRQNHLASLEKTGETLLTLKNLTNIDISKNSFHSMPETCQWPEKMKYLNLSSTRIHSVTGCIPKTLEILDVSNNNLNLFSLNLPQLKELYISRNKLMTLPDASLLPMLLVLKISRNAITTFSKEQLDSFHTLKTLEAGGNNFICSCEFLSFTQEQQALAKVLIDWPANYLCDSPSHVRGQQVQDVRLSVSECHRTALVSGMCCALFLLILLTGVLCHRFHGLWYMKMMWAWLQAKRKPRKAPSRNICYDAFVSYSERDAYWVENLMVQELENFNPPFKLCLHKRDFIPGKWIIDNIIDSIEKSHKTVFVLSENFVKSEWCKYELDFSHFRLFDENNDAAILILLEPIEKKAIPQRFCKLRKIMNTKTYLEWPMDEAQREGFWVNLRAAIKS
NOD2, sequence (Q9HC29 whole entry): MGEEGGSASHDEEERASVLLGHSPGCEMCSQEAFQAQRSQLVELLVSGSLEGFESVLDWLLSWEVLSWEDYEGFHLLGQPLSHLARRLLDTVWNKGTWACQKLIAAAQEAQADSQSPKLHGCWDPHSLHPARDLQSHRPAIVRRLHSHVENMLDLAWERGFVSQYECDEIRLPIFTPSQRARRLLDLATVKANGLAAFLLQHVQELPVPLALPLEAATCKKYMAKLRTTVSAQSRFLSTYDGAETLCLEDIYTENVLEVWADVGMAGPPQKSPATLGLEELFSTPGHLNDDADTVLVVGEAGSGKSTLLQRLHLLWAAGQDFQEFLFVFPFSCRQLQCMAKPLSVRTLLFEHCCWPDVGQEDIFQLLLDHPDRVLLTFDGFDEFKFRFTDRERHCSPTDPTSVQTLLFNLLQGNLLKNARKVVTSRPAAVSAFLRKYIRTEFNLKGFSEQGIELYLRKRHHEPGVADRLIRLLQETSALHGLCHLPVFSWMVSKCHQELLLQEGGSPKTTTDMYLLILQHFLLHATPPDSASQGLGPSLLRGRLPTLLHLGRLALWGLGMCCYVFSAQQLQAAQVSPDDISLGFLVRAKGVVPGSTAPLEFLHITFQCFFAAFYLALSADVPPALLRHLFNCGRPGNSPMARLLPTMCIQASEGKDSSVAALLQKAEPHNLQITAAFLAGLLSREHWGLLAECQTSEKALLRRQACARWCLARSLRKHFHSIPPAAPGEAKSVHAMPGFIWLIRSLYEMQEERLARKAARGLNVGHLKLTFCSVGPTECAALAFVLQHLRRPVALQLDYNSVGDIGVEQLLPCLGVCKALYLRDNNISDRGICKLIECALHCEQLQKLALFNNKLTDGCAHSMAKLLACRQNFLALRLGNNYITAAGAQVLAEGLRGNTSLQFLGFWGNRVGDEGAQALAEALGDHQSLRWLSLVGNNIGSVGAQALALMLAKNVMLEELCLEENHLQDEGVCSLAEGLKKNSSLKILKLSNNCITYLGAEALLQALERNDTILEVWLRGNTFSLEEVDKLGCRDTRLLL

With `CC(=O)N[C@H]1C(O)O[C@H](CO)[C@@H](O)[C@@H]1O[C@H](C)C(=O)N[C@@H](C)C(=O)N[C@H](CCC(=O)O)C(N)=O` (mixture of isomers) [MDP, muramyl dipeptide], in the test with HEK-BLUE Null2 line, the “SEAP response of HEK-Null cells” value is reported as “insensitive”. At NOD2 (HEK-NOD2 line), this molecule came in with a Detection threshold of 1.5 ± 0.5 ng/mL and an EC50 of 0.012 ± 0.006 µg/mL. The molecule further showed a Sensitivity at NOD2 (per g of polymer at 37.5 mg/ml) of 40 ± 13 ng/g. Moreover, on NOD2 (procedure without subculturing, 10 000 cells/well, FIG. 12), the “SEAP response relative to the negative control” value is given as 5-6 times. For the same molecule, the “SEAP response of HEK-NOD2 cells” value on NOD2 (selected conditions, FIG. 16) is “respond effectively”. The “SEAP response of HEK-NOD2 cells” value on NOD2 (setting [5]) was “responds only very weakly”. Further, the “increase of the sensitivity of the THP-1 cells to LPS and PGN (factor)” value with THP-1 cells [1] (MDP 10 μg/ml) was 5. Also, the “synergistic effect on the production of RANTES and of TNF-α in response to PGN and LPS” value with THP-1 cells [1] (minimum dose 1 μg/ml) was “does not induce a significant synergistic effect”. Moreover, in the test with THP-1 cells [1], the “synergistic effect on the production of RANTES” value is listed as “clearly show a synergistic effect”. Besides, the “synergistic effect on the production of TNF-α” value with THP-1 cells [2] is listed as “not very marked”.

As for Lipopolysaccharides [LPS], in the test with RAW-BLUE cells, the “SEAP response of RAW-BLUE cells to inflammatory molecules” value is “weak”, the “detection threshold relative to that of the sensitized THP-1 cells” value was “approximately 50 times”, the Detection threshold turned out to be 0.24 ± 0.06 ng/mL and the EC50 is more than 0.01 µg/mL. The molecule further returned a Sensitivity with RAW-BLUE cells of 4.8 ± 1.2 ng/g. Besides, in the test on mononuclear cells, the “concentration inducing a significant response” value is given as “about 1 ng/ml”. Moreover, in the test with THP-1 cells [1], the Detection threshold was 10 ± 7 pg/mL, the EC50 is 0.0009 ± 0.0001 µg/mL, the Sensitivity was 400 ± 280 pg/g and the “synergistic effect on the production of RANTES” value is “synergistic effect of the two agonists is visible”. In addition, in the test with THP-1 cells [2] (sensitizer added to PGN/LPS: MDP 10 μg/ml, LPS 25 pg/ml), the “synergistic effect on the production of TNF-α” value is reported as “synergistic effect of the two agonists is visible”.

As for Tumor Necrosis Factor alpha [TNF-α], on TLR2 [3], the “SEAP response of HEK-TLR2 cells to inflammatory molecules” value (from here on “SEAP response of HEK-TLR2 cells”) is “respond”. The “SEAP response of HEK-Null cells” value in the test on HEK-BLUE Null2 line is on record as “respond”. Further, the “SEAP response of HEK-NOD2 cells” value on NOD2 (setting [5]) was “responds only very weakly”.

Regarding formyl-Met-Leu-Phe tripeptide [f-MLP], the “synergistic effect on the production of RANTES” value in the test on THP-1 cells [1] is recorded as “no synergistic effect was observed”.

On to lipoteichoic acid [LTA], for which the “SEAP response of HEK-TLR2 cells” value at TLR2 [3] is “weaker”.

Turning to peptidoglycans [PGN], at TLR2 [3], the “PGN levels detected by the HEK-TLR2 line” value is reported as “below 2 ng/g of glucose polymer”, the “SEAP response of HEK-TLR2 cells” value is recorded as “responds effectively”, the “reduction of reactivity for the HEK-TLR2 cells after passing through a 0.22 μm filter” value is on record as “approximately 50%” and the “sensitivity threshold relative to the sensitized THP-1 cells” value is 50 times. Besides, at TLR2 [3] (HEK-TLR2 line), the Detection threshold is 0.07 ± 0.04 ng/mL and the EC50 stood at 0.0031 ± 0.0025 µg/mL. On TLR2 [3] (listed as PUN), the “SEAP response of HEK-TLR2 cells” value is listed as “respond very effectively”. The Sensitivity on TLR2 [3] (per g of polymer at 37.5 mg/ml) was determined as 1.9 ± 1.1 ng/g. In addition, the “SEAP response of HEK-Null cells” value in the test on HEK-BLUE Null2 line is on record as “insensitive”. For the same molecule, the “reduction of the response of the HEK-TLR2 cells by mutanolysin treatment” value at TLR2 [4] (2500 U/ml, 16 h, 37° C., absence of glucose polymer) is “more than 50%”. On TLR2 [4] (in the presence of 7.5% of polymer), the “response of the HEK-TLR2 cells after mutanolysin treatment” value is listed as “improved”. Moreover, on TLR2 [4] (in the presence of 37.5% of polymer), the “response of the HEK-TLR2 cells after mutanolysin treatment” value is reported as “unchanged”. Also, in the test with RAW-BLUE cells, the “SEAP response of RAW-BLUE cells to inflammatory molecules” value is “respond well”, the Detection threshold came out at 2.1 ± 1.5 ng/mL, the 50% effective concentration (EC50) came to 0.21 ± 0.075 µg/mL and the Sensitivity is 42 ± 30 ng/g. In addition, the “concentration required for a similar response, relative to LPS” value in the test on mononuclear cells (w/w ratio) was “at least 100 times”. For the same molecule, in the test on THP-1 cells [1], the EC50 was determined as 1.2 ± 0.7 µg/mL and the Sensitivity came to 580000 ± 340000 pg/g. The Detection threshold with THP-1 cells [1] (response > 3 x SD of background noise) is 14500 ± 8500 pg/mL.
